Test results published in patent US20250268903A1, “RXFP1 AGONISTS” (BRISTOL-MYERS SQUIBB COMPANY, priority 2021, published 2025).

molecular target: T1, human RXFP1 (Homo sapiens, UniProt Q9HBX9); test: hRXFP1 HEK293 cAMP assay (HTRF); format: cell-based; conditions: HEK293 cells stably expressing human RXFP1, 30 min at room temperature
T1 construct: expressed in transfected cells
T1 sequence (Q9HBX9 1-757): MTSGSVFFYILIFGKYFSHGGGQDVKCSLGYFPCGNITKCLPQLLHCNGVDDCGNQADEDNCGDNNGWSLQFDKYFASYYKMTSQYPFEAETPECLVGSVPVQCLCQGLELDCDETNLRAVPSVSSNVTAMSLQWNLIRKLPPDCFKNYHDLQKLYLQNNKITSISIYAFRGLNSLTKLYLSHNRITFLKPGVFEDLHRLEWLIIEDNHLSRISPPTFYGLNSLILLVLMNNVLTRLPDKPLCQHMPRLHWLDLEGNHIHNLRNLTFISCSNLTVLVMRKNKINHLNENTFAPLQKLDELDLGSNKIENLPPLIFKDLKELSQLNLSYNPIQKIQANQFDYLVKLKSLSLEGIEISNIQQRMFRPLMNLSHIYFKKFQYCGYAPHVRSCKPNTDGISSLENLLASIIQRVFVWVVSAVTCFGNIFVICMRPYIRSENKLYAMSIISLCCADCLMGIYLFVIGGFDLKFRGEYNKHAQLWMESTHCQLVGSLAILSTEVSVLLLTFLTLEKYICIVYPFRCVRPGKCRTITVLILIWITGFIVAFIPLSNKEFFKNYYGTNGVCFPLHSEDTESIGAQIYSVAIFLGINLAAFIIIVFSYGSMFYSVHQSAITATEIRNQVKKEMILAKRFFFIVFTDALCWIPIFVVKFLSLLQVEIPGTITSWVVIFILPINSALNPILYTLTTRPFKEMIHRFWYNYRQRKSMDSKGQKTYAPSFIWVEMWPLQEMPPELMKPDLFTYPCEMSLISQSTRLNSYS
Method in brief: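 Potency and activity come from a four-parameter logistic fit of cAMP against compound concentration, tested from 0.010 nM up to 50 μM. The assay uses HEK293 cells stably expressing human RXFP1, incubated 30 min at ambient temperature with phosphodiesterase inhibitor IBMX present.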

Which EC50 does the source give for `COc1ccc(S(=O)(=O)N2CC3COCC3C2)cc1C(=O)NC1C2CCC(/C2=C/C(F)(F)F)[C@@H]1C(=O)Nc1ccc(F)c(C(F)(F)F)c1` (stereo partly drawn) [Example 205, (2S,3R,7Z)-N-[4-fluoro-3-(trifluoromethyl)phe-nyl]-3-(5-{hexahydro-1H-furo[3,4-c]pyrrole-5-sulfonyl}-2-methoxybenzamido)-7-(2,2,2-trifluoroethylidene)bi-cyclo[2.2.1]heptane-2-carboxamide] here?
Its EC50 is 0.611 µM.

With `COC(=O)C1CC(c2ccc(OC)c(C(=O)N[C@H]3[C@@H](C(=O)Nc4ccc(F)c(C(F)(F)F)c4)[C@H]4CC[C@@H]3/C4=C\C(F)(F)F)c2)C1` (stereo partly drawn) [Example 329, methyl 3-(3-{[(1R,2R,3S,4R,7Z)-3-{[4-fluoro-3-(trifluoromethyl)phenyl]carbamoyl}-7-(2,2,2-trifluoroethylidene)bicyclo[2.2.1]heptan-2-yl]carbamoyl}-4-methoxyphenyl) cyclobutane-1-carboxylate] as the molecule, how does the EC50 read?
The EC50 was 0.21 µM.

How did the EC50 turn out when “2-(3-{[(2R,3S,7Z)- 3-{[4-fluoro-3- (trifluoromethyl)phe- nyl]carbamoyl}-7- (2,2,2- trifluoroethylidene)bi- cyclo[2.2.1]heptan- 2-yl]carbamoyl}-4- methoxyphenyl)ethyl N-phenylcarbamate [Example 56]” was run?
The EC50 was 0.447 µM.

Which EC50 does the source give for `COC(=O)/C=C\c1ccc(OC)c(C(=O)N[C@H]2[C@@H](C(=O)Nc3ccc(F)c(C(F)(F)F)c3)[C@H]3CC[C@@H]2/C3=C\C(F)(F)F)c1` [Example 304, methyl (2Z)-3-(3-{[(1R,2R,3S,4R,7Z)-3-{[4-fluoro-3-(trifluoromethyl)phenyl]carbamoyl}-7-(2,2,2-trifluoroethylidene)bicyclo[2.2.1]heptan-2-yl]carbamoyl}-4-methoxyphenyl) prop-2-enoate] here?
Its EC50 is 0.597 µM.

With `CCOC(=O)/C(C)=C/c1ccc(OC)c(C(=O)N[C@H]2[C@@H](C(=O)Nc3ccc(F)c(C(F)(F)F)c3)[C@H]3CC[C@@H]2/C3=C\C(F)(F)F)c1` [Example 305, ethyl (2E)-3-(3-{[(1R,2R,3S,4R,7Z)-3-{[4-fluoro-3-(trifluoromethyl)phenyl]carbamoyl}-7-(2,2,2-trifluoroethylidene)bicyclo[2.2.1]heptan-2-yl]carbamoyl}-4-methoxyphenyl)-2-methylprop-2-enoate] as the molecule, how does the EC50 read?
Its EC50 is 0.744 µM.

With `COc1ccc(S(=O)(=O)N2CCN[C@@H](CO)C2)cc1C(=O)NC1C2CCC(/C2=C/C(F)(F)F)[C@@H]1C(=O)Nc1ccc(F)c(C(F)(F)F)c1` (stereo partly drawn) [Example 204, (2S,3R,7Z)-N-[4-fluoro-3-(trifluoromethyl)phe-nyl]-3-(5-{[(3R)-3-(hydroxymethyl)piper-azin-1-yl]sulfonyl}-2-methoxybenzamido)-7-(2,2,2-trifluoroethylidene)bi-cyclo[2.2.1]heptane-2-carboxamide] as the molecule, how does the EC50 read?
The EC50 was 0.341 µM.

With `COc1ccc(CCCO)cc1C(=O)NC1C2CCC(/C2=C/C2CCCOC2)[C@@H]1C(=O)Nc1ccc(F)c(C(F)(F)F)c1` (single isomer, unassigned) [Example 171, (7Z)-N-[4-fluoro-3-(trifluoromethyl)phe-nyl]-3-[5-(3-hydroxypropyl)-2-methoxybenzamido]-7-[(oxan-3-yl)methylidene]bicy-clo[2.2.1]heptane-2-carboxamide] as the molecule, how does the EC50 read?
Its EC50 is 0.397 µM.

`COc1ccc(C2CC2C(=O)N2CCC(O)CC2)cc1C(=O)N[C@H]1[C@@H](C(=O)Nc2ccc(F)c(C(F)(F)F)c2)[C@H]2CC[C@@H]1/C2=C\C1CC1` (single isomer, unassigned) [Example 324] was tested. Which EC50 did it give?
Its EC50 is 0.00495 µM.

For `COc1ccc(C2CCCC(O)C2)cc1C(=O)N[C@@H]1C2CCC(/C2=C/C(F)(F)F)[C@@H]1C(=O)Nc1ccc(F)c(C(F)(F)F)c1` (single isomer, unassigned) [Example 38], which EC50 is on record?
Its EC50 is 0.25 µM.

With `COc1cc(F)c(O[C@H]2CC[C@](C)(C(=O)O)CC2)cc1C(=O)N[C@@H]1C2CCC(/C2=C/C2CC2)[C@@H]1C(=O)Nc1ccc(F)c(C(F)(F)F)c1` (stereo partly drawn) [Example 375, (1R,4r)-4-(5-(((1R,2R,3S,4R,Z)-7-(cyclopropyl-methylene)-3-((4-fluoro-3-(trifluoromethyl)phenyl)carbamoyl)bicyclo[2.2.1]heptan-2-yl)carbamoyl)-2-fluoro-4-methoxyphenoxy)-1-methylcyclohexane-1-carboxylic acid] as the molecule, how does the EC50 read?
Its EC50 is 0.0013 µM.

With `COc1ccc(C(O)C(F)(F)F)cc1C(=O)NC1C2CCC(/C2=C/C(F)(F)F)[C@@H]1C(=O)Nc1ccc(F)c(C(F)(F)F)c1` (single isomer, unassigned) [Example 5] as the molecule, how does the EC50 read?
The EC50 was 1.01 µM.

For `COc1ccc(CCCCCCOC(=O)NC2CCC2)cc1C(=O)N[C@@H]1C2CCC(/C2=C/C(F)(F)F)[C@@H]1C(=O)Nc1ccc(F)c(C(F)(F)F)c1` (stereo partly drawn) [Example 101, 6-(3-{[(2R,3S,7Z)-3-{[4-fluoro-3-(trifluoromethyl)phe-nyl]carbamoyl}-7-(2,2,2-trifluoroethylidene)bi-cyclo[2.2.1]heptan-2-yl]carbamoyl}-4-methoxyphenyl)hex-yl N-cyclobutylcarbamate], which EC50 is on record?
The EC50 was 0.194 µM.

Which EC50 does the source give for `COc1ccc(/C=C/C(=O)N[C@H]2C[C@H](O)C2)cc1C(=O)NC1C2CCC(/C2=C/C(F)(F)F)[C@@H]1C(=O)Nc1ccc(F)c(C(F)(F)F)c1` (stereo partly drawn) [Example 131, (2S,3R,7Z)-N-[4-fluoro-3-(trifluoromethyl)phe-nyl]-3-{2-methoxy-5-[(1E)-2-{[(1r,3r)-3-hydroxycyclobutyl]car-bamoyl}eth-1-en-1-yl]benzamido}-7-(2,2,2-trifluoroethylidene)bi-cyclo[2.2.1]heptane-2-carboxamide] here?
The EC50 was 0.264 µM.

`COc1ccc(C2CCCCC2O)cc1C(=O)N[C@@H]1C2CCC(/C2=C/C(F)(F)F)[C@@H]1C(=O)Nc1ccc(F)c(C(F)(F)F)c1` (single isomer, unassigned) [Example 58] was tested. Which EC50 did it give?
The EC50 was 1.2 µM.

For `COc1ccc(S(=O)(=O)Nc2nnn[nH]2)cc1C(=O)NC1C2CCC(/C2=C/C(F)(F)F)[C@@H]1C(=O)Nc1ccc(F)c(C(F)(F)F)c1` (stereo partly drawn) [Example 206, (2S,3R,7Z)-N-[4-fluoro-3-(trifluoromethyl)phe-nyl]-3-{2-methoxy-5-[(1H-1,2,3,4-tetrazol-5-yl)sulfamoyl]benza-mido}-7-(2,2,2-trifluoroethylidene)bi-cyclo[2.2.1]heptane-2-carboxamide], which EC50 is on record?
The EC50 was 3.05 µM.

For `COc1ccc(Nc2ccccc2)cc1C(=O)N[C@H]1[C@@H](C(=O)Nc2ccc(F)c(C(F)(F)F)c2)[C@H]2CC[C@@H]1/C2=C\C1CC1` [Example 2, (1R,2S,3R,4R,Z)-7-(cyclopropylmethylene)-N-(4-fluoro-3-(trifluoromethyl)phenyl)-3-(2-methoxy-5-(phenylamino)benzamido) bicyclo[2.2.1]heptane-2-carboxamide], which EC50 is on record?
Its EC50 is 0.28 µM.

`COc1ccc(/C=C/C(=O)N2CC(O)C2)cc1C(=O)N[C@H]1[C@@H](C(=O)Nc2ccc(F)c(C(F)(F)F)c2)[C@H]2CC[C@@H]1/C2=C\C(F)(F)F` [Example 314] was tested. Which EC50 did it give?
Its EC50 is 0.0662 µM.

Which EC50 does the source give for `COc1ccc(C(=O)N(C)C(C)(C)C)cc1C(=O)N[C@H]1[C@@H](C(=O)Nc2ccc(F)c(C(F)(F)F)c2)[C@H]2CC[C@@H]1/C2=C\C1CC1` [Example 241, N1-tert-butyl-N3-[(1R,2R,3S,4R,7Z)-7-(cyclopropyl-methylidene)-3-{[4-fluoro-3-(trifluoromethyl)phenyl]carbamoyl}bicyclo[2.2.1]heptan-2-yl]-4-methoxy-N1-methylbenzene-1,3-dicarboxamide] here?
Its EC50 is 0.0698 µM.

With `COc1ccc(CCC(C)(C)O)cc1C(=O)N[C@H]1[C@@H](C(=O)NCC(C)(C)C)[C@H]2CC[C@@H]1/C2=C\C1CC1` [Example 271, (1R,2S,3R,4R,7Z)-7-(cyclopropylmethyl-idene)-N-(2,2-dimethylpropyl)-3-[5-(3-hydroxy-3-methylbutyl)-2-methoxybenzamido] bicyclo[2.2.1]heptane-2-carboxamide] as the molecule, how does the EC50 read?
The EC50 was 0.264 µM.

How did the EC50 turn out when `COc1ccc(C(=O)NCCS(C)(=O)=O)cc1C(=O)N[C@H]1[C@@H](C(=O)Nc2ccc(F)c(C(F)(F)F)c2)[C@H]2CC[C@@H]1/C2=C\C1CC1` [Example 253, N3-[(1R,2R, 3S,4R,7Z)-7-(cyclopropylmethyl-idene)-3-{[4-fluoro-3-(trifluoromethyl)phenyl]carbamoyl}bicyclo[2.2.1]heptan-2-yl]-N1-(2-methanesulfonylethyl)-4-methoxybenzene-1,3-dicarboxamide] was run?
The EC50 was 0.0119 µM.

Which EC50 does the source give for `COc1cc(C#CCO)ccc1C(=O)N[C@@H]1C2CCC(/C2=C/C(F)(F)F)[C@@H]1C(=O)Nc1ccc(F)c(C(F)(F)F)c1` (stereo partly drawn) [Example 74, (2S,3R,7Z)-N-[4-fluoro-3-(trifluoromethyl)phe-nyl]-3-[4-(3-hydroxyprop-1-yn-1-yl)-2-methoxybenzamido]-7-(2,2,2-trifluoroethylidene)bi-cyclo[2.2.1]heptane-2-carboxamide] here?
Its EC50 is 3.55 µM.

`COc1ccc(C2CCCCC2O)cc1C(=O)N[C@@H]1C2CCC(/C2=C/C(F)(F)F)[C@@H]1C(=O)Nc1ccc(F)c(C(F)(F)F)c1` (mixture of isomers) [Example 59] was tested. Which EC50 did it give?
Its EC50 is 1.27 µM.
